From patent US10485235B2, “Aryloxypyrimidinyl ethers as herbicides” (FMC Corporation, priority 2015, dated 2019)

Key:
Assay type in all cases: in vivo
[1] = system: barnyardgrass (Echinochloa crus-galli); experiment: Test A preemergence, barnyardgrass; settings: Echinochloa crus-galli, pre-emergence, 240 h, Preemergence, 0 to 100 scale (0 no effect, 100 complete control), read-out: Plant response rating, Barnyardgrass; for pest or weed control at 125 g/ha: 125 g ai/ha; for pest or weed control at 500 g/ha: 500 g ai/ha
Summary of the method: (§1)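 Plants grown in pots of loam blended with sand were treated either before emergence, via directed soil spray, or after emergence at the one- to two-leaf stage. Following about 10 days in the greenhouse, each treatment was visually compared with untreated controls and rated from 0 (no effect) to 100 (complete control).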

kochia (Kochia scoparia) [2] = experiment: Test A preemergence, kochia; settings: Bassia scoparia, pre-emergence, 240 h, Preemergence, 0 to 100 scale (0 no effect, 100 complete control), read-out: Plant response rating, Kochia; for pest or weed control at 125 g/ha: 125 g ai/ha; for pest or weed control at 500 g/ha: 500 g ai/ha
Summary of the method: as §1

[3] = system: ryegrass, Italian (Italian ryegrass, Lolium multiflorum); experiment: Test A preemergence, Italian ryegrass; settings: Lolium multiflorum, pre-emergence, 240 h, Preemergence, 0 to 100 scale (0 no effect, 100 complete control), read-out: Plant response rating, Ryegrass, Italian; for pest or weed control at 125 g/ha: 125 g ai/ha; for pest or weed control at 500 g/ha: 500 g ai/ha
Summary of the method: as §1

[4] = system: pigweed (Amaranthus retroflexus); experiment: Test A preemergence, pigweed; settings: Amaranthus retroflexus, pre-emergence, 240 h, Preemergence, 0 to 100 scale (0 no effect, 100 complete control), read-out: Plant response rating, Pigweed; for pest or weed control at 125 g/ha: 125 g ai/ha; for pest or weed control at 500 g/ha: 500 g ai/ha
Summary of the method: as §1

kochia (Kochia scoparia) [5] = experiment: Test A postemergence, kochia; settings: Bassia scoparia, post-emergence, 240 h, postemergence, 0 to 100 scale, 0 is no effect, 100 is complete control, approximately 10 days, read-out: Plant response rating, Kochia; for pest or weed control at 125 g/ha: 125 g ai/ha; for pest or weed control at 500 g/ha: 500 g ai/ha
Summary of the method: as §1

[6] = system: ragweed (common ragweed, Ambrosia elatior); experiment: Test A postemergence, ragweed; settings: Ambrosia artemisiifolia, post-emergence, 240 h, postemergence, 0 to 100 scale, 0 is no effect, 100 is complete control, approximately 10 days, read-out: Plant response rating, Ragweed; for pest or weed control at 125 g/ha: 125 g ai/ha; for pest or weed control at 500 g/ha: 500 g ai/ha
Summary of the method: as §1

[7] = system: foxtail, giant (giant foxtail, Setaria faberii); experiment: Test A postemergence, giant foxtail; settings: Setaria faberi, post-emergence, 240 h, postemergence, 0 to 100 scale, 0 is no effect, 100 is complete control, approximately 10 days, read-out: Plant response rating, Foxtail, Giant; for pest or weed control at 125 g/ha: 125 g ai/ha; for pest or weed control at 500 g/ha: 500 g ai/ha
Summary of the method: as §1

[8] = system: pigweed (Amaranthus retroflexus); experiment: Test A postemergence, pigweed; settings: Amaranthus retroflexus, post-emergence, 240 h, postemergence, 0 to 100 scale, 0 is no effect, 100 is complete control, approximately 10 days, read-out: Plant response rating, Pigweed; for pest or weed control at 125 g/ha: 125 g ai/ha; for pest or weed control at 500 g/ha: 500 g ai/ha
Summary of the method: as §1

[9] = system: wheat (Triticum aestivum); experiment: Test A postemergence, wheat; settings: Triticum aestivum, post-emergence, 240 h, postemergence, 0 to 100 scale, 0 is no effect, 100 is complete control, approximately 10 days, read-out: Plant response rating, Wheat; for plant injury at 125 g/ha: 125 g ai/ha; for plant injury at 500 g/ha: 500 g ai/ha
Summary of the method: as §1

[10] = system: blackgrass (Alopecurus myosuroides); experiment: Test A postemergence, blackgrass; settings: Alopecurus myosuroides, post-emergence, 240 h, postemergence, 0 to 100 scale, 0 is no effect, 100 is complete control, approximately 10 days, read-out: Plant response rating, Blackgrass; for pest or weed control at 125 g/ha: 125 g ai/ha; for pest or weed control at 500 g/ha: 500 g ai/ha
Summary of the method: as §1

[11] = system: galium (catchweed bedstraw, Galium aparine); experiment: Test A postemergence, galium; settings: Galium, post-emergence, 240 h, postemergence, 0 to 100 scale, 0 is no effect, 100 is complete control, approximately 10 days, read-out: Plant response rating, Galium; for pest or weed control at 125 g/ha: 125 g ai/ha; for pest or weed control at 500 g/ha: 500 g ai/ha
Summary of the method: as §1

rice (Oryza sativa) = experiment: Test B flooded paddy test, rice; settings: Oryza sativa; 250 g ai/ha, Flood; visual rating after 13 to 15 days; scale 0 to 100, 0 is no effect, 100 is complete control; read-out: Plant response rating, Rice
Summary of the method: (§2)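 Seedlings at the 2-leaf stage are flooded to 3 cm and treated via the paddy water. Greenhouse plants are compared with controls after 13 to 15 days and given a 0 (no effect) to 100 (complete control) rating.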

[12] = system: sedge, umbrella (small-flower umbrella sedge, Cyperus difformis); experiment: Test B flooded paddy test, umbrella sedge; settings: Cyperus difformis; 250 g ai/ha, Flood; visual rating after 13 to 15 days; scale 0 to 100, 0 is no effect, 100 is complete control; read-out: Plant response rating, Sedge, Umbrella
Summary of the method: as §2

[13] = system: ducksalad (Heteranthera limosa); experiment: Test B flooded paddy test, ducksalad; settings: Heteranthera limosa; 250 g ai/ha, Flood; visual rating after 13 to 15 days; scale 0 to 100, 0 is no effect, 100 is complete control; read-out: Plant response rating, Ducksalad
Summary of the method: as §2

[14] = system: barnyardgrass (Echinochloa crus-galli); experiment: Test B flooded paddy test, barnyardgrass; settings: Echinochloa crus-galli; 250 g ai/ha, Flood; visual rating after 13 to 15 days; scale 0 to 100, 0 is no effect, 100 is complete control; read-out: Plant response rating, Barnyardgrass
Summary of the method: as §2

| Structure (SMILES) | pest or weed control at 125 g/ha [1] [%] | pest or weed control at 500 g/ha [1] [%] | pest or weed control at 125 g/ha (kochia (Kochia scoparia) [2]) [%] | pest or weed control at 500 g/ha (kochia (Kochia scoparia) [2]) [%] | pest or weed control at 125 g/ha [3] [%] | pest or weed control at 500 g/ha [3] [%] | pest or weed control at 125 g/ha [4] [%] | pest or weed control at 500 g/ha [4] [%] | pest or weed control at 125 g/ha (kochia (Kochia scoparia) [5]) [%] | pest or weed control at 500 g/ha (kochia (Kochia scoparia) [5]) [%] | pest or weed control at 125 g/ha [6] [%] | pest or weed control at 500 g/ha [6] [%] | pest or weed control at 125 g/ha [7] [%] | pest or weed control at 500 g/ha [7] [%] | pest or weed control at 125 g/ha [8] [%] | pest or weed control at 500 g/ha [8] [%] | plant injury at 125 g/ha [9] [%] | plant injury at 500 g/ha [9] [%] | pest or weed control at 125 g/ha [10] [%] | pest or weed control at 500 g/ha [10] [%] | further results |
| --- | --- | --- | --- | --- | --- | --- | --- | --- | --- | --- | --- | --- | --- | --- | --- | --- | --- | --- | --- | --- | --- |
| CCCCOc1c(Br)cccc1Oc1ncc(Cl)cn1 [Compound 13, 2-[3-bromo-2-(butoxy)phenoxy]-5-chloropyrimidine] | 100 | 100 | 80 | 100 | 10 | 90 | 100 | 100 | 100 | 100 | 0 | 10 | 90 | 100 | 100 | 100 | 20 | 40 | 50 | 100 | pest or weed control at 125 g/ha [11]: 90%; pest or weed control at 500 g/ha [11]: 100%; plant injury at 250 g/ha (rice (Oryza sativa)): 20%; pest or weed control at 250 g/ha [12]: 95%; pest or weed control at 250 g/ha [13]: 50%; pest or weed control at 250 g/ha [14]: 0% |
| FC(F)C(F)(F)COc1c(Br)cccc1Oc1ncc(Cl)cn1 [Compound 18, 2-[3-bromo-2-(2,2,3,3-tetrafluoropropoxy)phenoxy]-5-chloropyrimidine] | 100 | 100 | 30 | 100 | 10 | 100 | 100 | 100 | 100 | 100 | 0 | 20 | 40 | 100 | 100 | 100 | 0 | 20 | 20 | 80 | pest or weed control at 125 g/ha [11]: 80%; pest or weed control at 500 g/ha [11]: 100%; plant injury at 250 g/ha (rice (Oryza sativa)): 0%; pest or weed control at 250 g/ha [12]: 0%; pest or weed control at 250 g/ha [13]: 30%; pest or weed control at 250 g/ha [14]: 0% |
